Measured values taken from ChEMBL document CHEMBL1201862, “PubChem BioAssay data set” (2004).
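Grown in 96-well plates, cells were treated for 48 hours with each compound at five concentrations. Insufficient inhibition: endpoint recorded as highest concentration tested. GI50 = concentration required for 50% inhibition of growth.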 Active and inactive are the calls of the source. Cut-off read from the data, not from the text of the source: active = GI50 up to about 1.1 µM and inactive = higher.

Key:
Test in all cases: DTP human tumour cell line panel, 48 h
[1] = system: UACC-257
[2] = system: MDA-N
[3] = system: Hs-578T
[4] = system: TK-10
[5] = system: M14
[6] = system: U-251
[7] = system: A549
[8] = system: IGROV-1
[9] = system: OVCAR-3
[10] = system: BT-549
[11] = system: T47D
[12] = system: MCF7
[13] = system: SK-MEL-28
[14] = system: CAKI-1
[15] = system: UACC-62
[16] = system: SW-620
[17] = system: HCT-116
[18] = system: SF-268
[19] = system: MDA-MB-231
[20] = system: UO-31

SMILES	GI50 [1]	GI50 [2]	GI50 [3]	GI50 [4]	GI50 [5]	GI50 [6]	GI50 [7]	GI50 [8]	GI50 [9]	GI50 [10]	GI50 [11]	GI50 [12]	GI50 [13]	GI50 [14]	GI50 [15]	GI50 [16]	GI50 [17]	GI50 [18]	GI50 [19]	GI50 [20]
O=C1CCc2cc(Br)ccc2O1	> 100 µM (inactive)	> 100 µM (inactive)	22.4 µM (inactive)	45.7 µM (inactive)	57 µM (inactive)	30 µM (inactive)	> 100 µM (inactive)	67.3 µM (inactive)	> 100 µM (inactive)	62.8 µM (inactive)	73.3 µM (inactive)	12.6 µM (inactive)	> 100 µM (inactive)	38.4 µM (inactive)	> 100 µM (inactive)	> 100 µM (inactive)	42 µM (inactive)	23.6 µM (inactive)	–	–
Cc1sc2nc3n(c(=O)c2c1C)N=C(c1ccc(Cl)cc1)CS3	> 100 µM (inactive)	> 100 µM (inactive)	82.6 µM (inactive)	–	–	> 100 µM (inactive)	> 100 µM (inactive)	–	> 100 µM (inactive)	31.6 µM (inactive)	> 100 µM (inactive)	> 100 µM (inactive)	> 100 µM (inactive)	> 100 µM (inactive)	> 100 µM (inactive)	> 100 µM (inactive)	> 100 µM (inactive)	> 100 µM (inactive)	> 100 µM (inactive)	> 100 µM (inactive)
O=C1NN=C(c2ccc(Cl)cc2)CC1C1C(=O)N(c2ccccc2)N=C1c1ccccc1 (stereo not given)	–	34.8 µM (inactive)	18.8 µM (inactive)	35.6 µM (inactive)	37.8 µM (inactive)	33 µM (inactive)	34 µM (inactive)	35.7 µM (inactive)	27.5 µM (inactive)	20 µM (inactive)	22.1 µM (inactive)	40.5 µM (inactive)	36.7 µM (inactive)	–	26.8 µM (inactive)	30.5 µM (inactive)	19.6 µM (inactive)	48.2 µM (inactive)	35.9 µM (inactive)	21.5 µM (inactive)
C=CCOc1ccc2c(C)cc(=O)oc2c1C	> 100 µM (inactive)	42 µM (inactive)	26.9 µM (inactive)	–	46.5 µM (inactive)	54.2 µM (inactive)	50.7 µM (inactive)	63 µM (inactive)	> 100 µM (inactive)	32 µM (inactive)	47.9 µM (inactive)	38.5 µM (inactive)	> 100 µM (inactive)	24.1 µM (inactive)	82.6 µM (inactive)	67 µM (inactive)	40.5 µM (inactive)	55.3 µM (inactive)	32.2 µM (inactive)	29.5 µM (inactive)
CCOC(=O)C(C(=O)COC(C)(C)C)[C@@H]1C=C[C@H](OC(C)=O)C1 (stereo not given in full)	> 100 µM (inactive)	> 100 µM (inactive)	> 100 µM (inactive)	–	> 100 µM (inactive)	> 100 µM (inactive)	> 100 µM (inactive)	–	> 100 µM (inactive)	> 100 µM (inactive)	> 100 µM (inactive)	> 100 µM (inactive)	> 100 µM (inactive)	> 100 µM (inactive)	> 100 µM (inactive)	> 100 µM (inactive)	> 100 µM (inactive)	> 100 µM (inactive)	> 100 µM (inactive)	> 100 µM (inactive)
c1ccc(C(/C(=N/c2ccc(Cc3ccc(/N=C(\C(c4ccccc4)c4ccccc4)N4CC4)cc3)cc2)N2CC2)c2ccccc2)cc1	11.6 µM (inactive)	–	10.6 µM (inactive)	14.2 µM (inactive)	14.3 µM (inactive)	12.7 µM (inactive)	7.36 µM (inactive)	0.942 µM (active)	3.66 µM (inactive)	10.5 µM (inactive)	2.61 µM (inactive)	3.1 µM (inactive)	9.46 µM (inactive)	6.95 µM (inactive)	2.32 µM (inactive)	6.3 µM (inactive)	4.36 µM (inactive)	4.86 µM (inactive)	12.2 µM (inactive)	2.6 µM (inactive)
CC[C@H](NC1=C(Cl)C(=O)c2c(O)ccc(O)c2C1=O)C(=O)OC	3.66 µM (inactive)	6.55 µM (inactive)	> 10 µM (inactive)	> 10 µM (inactive)	3.72 µM (inactive)	6.12 µM (inactive)	> 10 µM (inactive)	> 10 µM (inactive)	4.19 µM (inactive)	> 10 µM (inactive)	–	3.94 µM (inactive)	–	> 10 µM (inactive)	> 10 µM (inactive)	5.79 µM (inactive)	2.34 µM (inactive)	4.13 µM (inactive)	3.33 µM (inactive)	–
CC(=O)CC1(O)C(=O)c2c(Br)sc(Br)c2C1=O	19.6 µM (inactive)	22.3 µM (inactive)	31.3 µM (inactive)	25.9 µM (inactive)	17.8 µM (inactive)	24 µM (inactive)	58.1 µM (inactive)	17 µM (inactive)	16.9 µM (inactive)	19 µM (inactive)	30.9 µM (inactive)	30.1 µM (inactive)	20.7 µM (inactive)	17.3 µM (inactive)	21 µM (inactive)	25.1 µM (inactive)	19.8 µM (inactive)	30.2 µM (inactive)	–	32.2 µM (inactive)
